Laboratory results published in patent publication US11773084B1, “4-arylamino-2-(6-indolylamino)pyrimidine compounds as antibacterial agents” (KING FAISAL UNIVERSITY, priority 2023, dated 2023).
≈ marks a conversion by molar mass, not a printed value. Read-outs that look alike come from different tables or passages of the source.

What was measured:
DNA gyrase from E. coli = biological target: T1, DNA gyrase from E. coli (Escherichia coli, UniProt P0AES4+P0AES6); experiment: E. coli DNA gyrase inhibition (Inspiralis assay); format: biochemical
T1 construct: purchased Inspiralis
T1 sequence (P0AES4 whole entry, one chain of several): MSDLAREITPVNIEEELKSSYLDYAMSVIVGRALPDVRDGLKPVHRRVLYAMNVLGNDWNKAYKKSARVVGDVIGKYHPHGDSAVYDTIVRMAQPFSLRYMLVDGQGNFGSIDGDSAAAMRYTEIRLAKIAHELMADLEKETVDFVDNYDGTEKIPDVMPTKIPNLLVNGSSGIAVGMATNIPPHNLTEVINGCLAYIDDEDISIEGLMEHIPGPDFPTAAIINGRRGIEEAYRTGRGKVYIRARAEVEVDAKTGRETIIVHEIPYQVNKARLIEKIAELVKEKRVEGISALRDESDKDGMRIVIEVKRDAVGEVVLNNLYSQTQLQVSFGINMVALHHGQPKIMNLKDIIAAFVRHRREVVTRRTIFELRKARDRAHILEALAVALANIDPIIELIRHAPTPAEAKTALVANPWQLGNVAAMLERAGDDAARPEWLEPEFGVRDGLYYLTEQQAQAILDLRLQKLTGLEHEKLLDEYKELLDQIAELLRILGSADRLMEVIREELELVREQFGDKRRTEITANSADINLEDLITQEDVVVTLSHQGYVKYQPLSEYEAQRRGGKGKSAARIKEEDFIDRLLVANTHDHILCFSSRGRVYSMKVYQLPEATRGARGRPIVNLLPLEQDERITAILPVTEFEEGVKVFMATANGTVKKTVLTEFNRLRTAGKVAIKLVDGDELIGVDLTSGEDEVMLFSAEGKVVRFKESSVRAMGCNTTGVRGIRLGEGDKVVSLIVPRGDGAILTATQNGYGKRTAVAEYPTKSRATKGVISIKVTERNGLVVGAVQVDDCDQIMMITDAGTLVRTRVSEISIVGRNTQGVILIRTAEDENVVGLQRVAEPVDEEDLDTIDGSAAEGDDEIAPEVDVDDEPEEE
Description: First, the plates were rehydrated with buffer (20 mM Tris-HCl with pH 7.6, 0.01% w/v BSA, 0.05% v/v Tween 20, 137 mM NaCl) and the biotinylated oligonucleotide was then immobilized. After washing off the unbound oligonucleotide, the enzyme test was performed. […] Reaction solutions were incubated at 37° C. for 30 min. After that, the TF buffer (50 mM NaOAc with pH 5.0, 50 mM NaCl and 50 mM MgCl2) was added to terminate the enzymatic reaction. After additional incubation for 30 min at rt, during which biotinoligonucleotide-plasmid triplex was formed, the unbound plasmid was washed off using TF buffer and SybrGOLD in T10 buffer (10 mM Tris HCl with pH 8.0 and 1 mM EDTA) was added. The fluorescence was measured with a microplate reader (BioTek Synergy H4, excitation: 485 nm, emission: 535 nm). […] GraphPad Prism software was used to calculate the IC50 values. The result is given as the average value of three independent measurements.

[1] = tested on: Staphylococcus aureus ATCC BAA-1556 (MERSA resistant); experiment: In vitro antibacterial activity (CLSI M07-A10 dilution MIC); format: cell-based; settings: ATCCBAA1556
[2] = tested on: Escherichia coli MTCC 443; experiment: as above; format: cell-based
[3] = tested on: Enterococcus faecium ATCC 51559 (VRE resistant); experiment: as above; format: cell-based
[4] = tested on: Mycobacterium tuberculosis H37Rv strain; experiment: Anti-tubercular alamar blue microplate MIC assay; format: cell-based; settings: seven days 37° C.
[5] = tested on: Staphylococcus aureus ATCC 29213; experiment: In vitro antibacterial activity (CLSI M07-A10 dilution MIC); format: cell-based; settings: ATCC29213
[6] = tested on: Staphylococcus epidermidis; experiment: as above; format: cell-based
[7] = tested on: Enterococcus faecium ATCC 35667; experiment: as above; format: cell-based; settings: ATCC35667
[8] = tested on: Bacillus subtilis MTCC 441; experiment: as above; format: cell-based; settings: MTCC441
[9] = tested on: Klebsiella pneumonia MTCC 618; experiment: as above; format: cell-based; settings: Klebsiella pneumoniae, MTCC618
[10] = Escherichia coli MTCC 443 + PABN

Compound	IC50 (DNA gyrase from E. coli) [nM]	MIC ([1]; Staphylococcus aureus ATCC BAA-1556 (MERSA resistant), read-out: MIC) [µg/mL]	MIC [2, 10] [µg/mL]	MIC ([2]; MTCC443, Escherichia coli MTCC 443, read-out: MIC) [µg/mL]	MIC ([3]; Enterococcus faecium ATCC 51559 (VRE resistant), read-out: MIC) [µg/mL]	anti-mycobacterial activity (MIC) [4] [micro-g/mL]	MIC ([5]; Staphylococcus aureus ATCC 29213, read-out: MIC) [µg/mL]	MIC ([6]; read-out: MIC) [µg/mL]	MIC ([7]; Enterococcus faecium ATCC 35667, read-out: MIC) [µg/mL]	MIC ([8]; Bacillus subtilis MTCC 441, read-out: MIC) [µg/mL]	MIC ([9]; Klebsiella pneumonia MTCC 618, read-out: MIC) [µg/mL]	MIC ([1]; Staphylococcus aureus) [µg/mL]	MIC ([2]; Escherichia coli, MTCC443) [µg/mL]	MIC ([3]; Enterococcus faecium) [µg/mL]	MIC ([5]; Staphylococcus aureus) [µg/mL]	MIC [6] [µg/mL]	MIC ([7]; Enterococcus faecium) [µg/mL]	MIC ([8]; Bacillus subtilis) [µg/mL]	MIC [9] [µg/mL]
CCCCCN(C)Cc1cc(C(=O)O)ccc1Nc1ccnc(Nc2ccc3cc(C)[nH]c3c2)n1 [Example 8, 3-((methyl(pentyl)amino)methyl)-4-((2-((2-methyl-1H-indol-6-yl)amino)pyrimidin-4-yl)amino)benzoic acid]	315	4 (≈ 8.46 µM)	2	32 (≈ 67.7 µM)	4 (≈ 8.46 µM)	8	4 (≈ 8.46 µM)	8 (≈ 16.9 µM)	2 (≈ 4.23 µM)	2 (≈ 4.23 µM)	2 (≈ 4.23 µM)	–	–	–	–	–	–	–	–
CN[C@H](CC(C)C)C(=O)N[C@H]1C(=O)N[C@@H](CC(N)=O)C(=O)N[C@H]2C(=O)N[C@H]3C(=O)N[C@H](C(=O)N[C@H](C(=O)O)c4cc(O)cc(O)c4-c4cc3ccc4O)[C@H](O)c3ccc(c(Cl)c3)Oc3cc2cc(c3O[C@@H]2O[C@H](CO)[C@@H](O)[C@H](O)[C@H]2O[C@H]2C[C@](C)(N)[C@H](O)[C@H](C)O2)Oc2ccc(cc2Cl)[C@H]1O [Vancomycin, reference compound]	–	–	>128	–	–	–	–	–	–	–	–	1 (≈ 0.69 µM)	> 128	> 128	1 (≈ 0.69 µM)	1 (≈ 0.69 µM)	0.5 (≈ 0.345 µM)	0.5 (≈ 0.345 µM)	> 128
